This note sets out measurements from ChEMBL document CHEMBL3046554, “Investigating the mode of action of sulfoxaflor: a fourth-generation neonicotinoid” (Pest Manag Sci, 2013).

As usually defined, the LC50 is the concentration lethal to half of the exposed cells or organisms.

Assay [1] relates to Myzus persicae. As to the kind of experiment: Displacement of [3H]-methyl-SFX from nAChR in Myzus persicae (green peach aphid) 4106A membrane at 1 ppm after 70 min. On the technique in general: In a radioligand displacement assay an active substance lowers the binding of a labelled ligand.
Assay [2] concerns Myzus persicae. The experiment in a line: whole plant or invertebrate. The assay is classed as functional. The conditions noted are these: 4106A, in Brassica rapa, 72 h.
Description: Insecticidal activity against Myzus persicae 4106A (green peach aphid) fed on compound treated chinese cabbage discs after 72 hr
Assay [3] relates to Myzus persicae. The experiment in a line: Insecticidal activity against neonicotinoid-resistant Myzus persicae FRC-P (green peach aphid) fed on compound treated chinese cabbage discs after 72 hr. The assay is classed as functional. The conditions noted are these: in Brassica rapa.
For assay [4], the system named is Myzus persicae. The experiment in a line: Binding affinity to nAChR in neonicotinoid-resistant Myzus persicae FRC-P (green peach aphid) membrane at 0.05 to 16 nM after 70 min. The conditions noted are these: tested as the 3H-labelled form.
Assay [5] concerns Myzus persicae. As to the kind of experiment: Ratio of Ki for [3H]IMD displacement to [3H]-methyl-SFX displacement from nAChR in Myzus persicae 4106A (green peach aphid) membrane. The conditions noted are these: tested as the 3H-labelled form.

Structures are written as SMILES. Values after ≈ are worked out from the molar mass of the structure shown. Active and inactive are the calls of the source. The rule behind the calls is not given here.

In the case of `N#Cc1nn(-c2c(Cl)cc(C(F)(F)F)cc2Cl)c(N)c1[S+]([O-])C(F)(F)F` (stereo unspecified), the Activity in assay [1] is 30%. As for `CC(c1ccc(C(F)(F)F)nc1)S(C)(=O)=NC(N)=O` (stereo unspecified), the LC50 in assay [2] is > 100 µg/mL.

Turning to `CCC(C)c1cc([N+](=O)[O-])cc([N+](=O)[O-])c1O` (stereo unspecified), the Activity in assay [1] is 13%. With `C=CCC(F)(F)c1ccc(C(C)S(C)(=O)=NC#N)cn1` (stereo unspecified), the LC50 in assay [2] is > 100 µg/mL. As for `O=[N+]([O-])/N=C1\NCCN1Cc1ccc(Cl)nc1` [IMIDACLOPRID], the LC50 in assay [2] turned out to be 0.1 µg/mL (≈ 0.391 µM); in assay [3], 108 µg/mL (≈ 422 µM). In assay [2], `CC(c1ccc(Cl)nc1)S(C)(=O)=NC#N` (stereo unspecified) had an LC50 of 1.4 µg/mL (≈ 5.74 µM).

As for `CCN(CC)c1nc(C)cc(OP(=S)(OC)OC)n1`, in assay [1], the Activity was 2%. In the case of `N#C/N=C1\SCCN1Cc1ccc(Cl)nc1` [THIACLOPRID], the values for the LC50 in assay [2] and in assay [3] were 0.4 µg/mL (≈ 1.58 µM) and > 1000 µg/mL, respectively. Take `CC(C)(c1ccc(C(F)(F)F)nc1)S(C)(=O)=NC#N` (stereo unspecified): the result in assay [4] was inactive. For the same compound, the LC50 in assay [2] was found to be 0.45 µg/mL (≈ 1.54 µM). Besides, in assay [5], the Ratio Ki was 100. For the compound `CC1(C)[C@H](/C=C(\Cl)C(F)(F)F)[C@@H]1C(=O)O[C@@H](C#N)c1cccc(Oc2ccccc2)c1` (relative stereo), the Activity in assay [1] stood at 3%. As for `C[C@@](F)(c1ccc(C(F)(F)F)nc1)S(C)(=O)=NC#N` (stereo partly specified), the LC50 in assay [2] was found to be 4.64 µg/mL (≈ 15.7 µM). As to `CCN(Cc1ccc(Cl)nc1)/C(=C/[N+](=O)[O-])NC` [NITENPYRAM], the LC50 is 1.3 µg/mL (≈ 4.8 µM) in assay [2] and 236 µg/mL (≈ 872 µM) in assay [3]. For the compound `Cc1nc(C(F)(F)F)ccc1CS(C)(=O)=NC#N` (stereo unspecified), in assay [2], the LC50 is > 100 µg/mL. With `CC[C@H](C)[C@H]1O[C@]2(C=C[C@@H]1C)C[C@@H]1C[C@@H](C/C=C(\C)[C@@H](O[C@H]3C[C@H](OC)[C@@H](O[C@H]4C[C@H](OC)[C@@H](O)[C@H](C)O4)[C@H](C)O3)[C@@H](C)/C=C/C=C3\CO[C@@H]4[C@H](O)C(C)=C[C@@H](C(=O)O1)[C@]34O)O2.CO[C@H]1C[C@H](O[C@H]2[C@H](C)O[C@@H](O[C@@H]3/C(C)=C/C[C@@H]4C[C@@H](C[C@]5(C=C[C@H](C)[C@@H](C(C)C)O5)O4)OC(=O)[C@@H]4C=C(C)[C@@H](O)[C@H]5OC/C(=C\C=C\[C@@H]3C)[C@]54O)C[C@@H]2OC)O[C@@H](C)[C@@H]1O`, the Activity in assay [1] was -6%. Take `CS(=O)(Cc1cnc(Cl)s1)=NC#N` (stereo unspecified): in assay [2], the LC50 amounted to 14.4 µg/mL (≈ 61.2 µM).

Take `CNC(=O)O/N=C/C(C)(C)SC`: in assay [1], the Activity was found to be 0%.

Regarding `CN/C(=N\[N+](=O)[O-])NCc1cnc(Cl)s1` [CLOTHIANIDINE], the LC50 in assay [2] was 0.3 µg/mL (≈ 1.2 µM); in assay [3], 904 µg/mL (≈ 3620 µM). With `CNC(=O)c1cc(Cl)cc(C)c1NC(=O)c1cc(Br)nn1-c1ncccc1Cl`, the Activity in assay [1] was 8%. In assay [2], `CS(=O)(Cc1ccc(C(F)(F)Cl)nc1)=NC#N` (stereo unspecified) yielded an LC50 of 9.6 µg/mL (≈ 34.3 µM). `CC(c1ccc(C(F)(F)F)nc1)S(C)(=O)=N[N+](=O)[O-]` (stereo unspecified): the LC50 in assay [2] is > 100 µg/mL.

Turning to `CN/C(=N/CC1CCOC1)N[N+](=O)[O-]` (stereo unspecified) [DINOTEFURAN], the figures for the LC50 in assay [2] and in assay [3] were 10 µg/mL (≈ 49.5 µM) and 538 µg/mL (≈ 2660 µM), respectively. As for `CN1COCN(Cc2cnc(Cl)s2)/C1=N\[N+](=O)[O-]` [THIAMETHOXAM], the LC50 in assay [2] was determined as 0.5 µg/mL (≈ 1.71 µM); in assay [3], 108 µg/mL (≈ 370 µM). Turning to `CCS(=O)(=NC#N)C(C)(C)c1ccc(C(F)(F)F)nc1` (stereo unspecified), the LC50 in assay [2] amounted to 20.5 µg/mL (≈ 67.1 µM). Consider `CC(c1ccc(C(F)(F)F)nc1)S(C)(=O)=NC#N` (stereo unspecified) [SULFOXAFLOR], for which the LC50 was 0.08 µg/mL (≈ 0.289 µM) in assay [2] and 4.3 µg/mL (≈ 15.5 µM) in assay [3]. Turning to `CON=CCCC(F)(F)c1ccc(C(C)S(C)(=O)=NC#N)cn1` (stereo unspecified), in assay [2], the LC50 was > 100 µg/mL.

As to `C/C(=N\C#N)N(C)Cc1ccc(Cl)nc1` [ACETAMIPRID], the LC50 in assay [2] turned out to be 0.6 µg/mL (≈ 2.69 µM); in assay [3] it was 49.3 µg/mL (≈ 221 µM).
